# Assay: Octanol-water distribution coefficient, log P of the compound by HPLC analysis
# Assay type: physicochemical
row,logP,SMILES
1,2.29,[11CH3]Oc1ccc(-c2c(C#N)c(C(=O)NN3CCCCC3)nn2-c2ccccc2Br)cc1
2,2.03,[11CH3]Oc1ccc(-c2c(C#N)c(C(=O)NN3CCCC3)nn2-c2ccccc2Br)cc1

# Reference: ChEMBL document CHEMBL2029268, “A new high-yield synthetic route to PET CB1 radioligands [11C]OMAR and its analogs” (Bioorg Med Chem Lett, 2012)
